Test results reported in patent EP4714468A1, “METHOD FOR ADMINISTERING MODULATOR TARGETING S1PR1 AND S1PR4” (priority 2023, dated 2024).
Where two headings read alike, the source gives them in different places.

Assays:
[1] = system: alopecia areata lesion area; test: C3H/HeJ alopecia areata mouse model; type: in vivo, C3H/HeJ mice; settings: 3 mg/kg or 10 mg/kg oral twice a day, 12 weeks
Method: The efficacy of NXC736 on alopecia areata was evaluated by using the alopecia areata mouse model C3H/HeJ (Jackson Lab, Saeron Bio).
C3H/HeJ mice, 10 to 16 weeks of age, in which alopecia areata was not induced, were divided into two groups: a control group (sterile distilled water administration group) and an NXC736 administration experimental group, and 5 mice per group were randomly assigned. After the lymph node cells were proliferated and injected into the C3H/HeJ mice, the NXC736 administration experimental group was orally administered with 3 mg/kg or 10 mg/kg of NXC736, and the control group was orally administered with the same volume of sterile distilled water twice a day at the same time for 12 weeks. The alopecia areata lesion area and disease free ratio were measured at two-week intervals. The animal breeding room was maintained at a temperature of 23±3°C, a relative humidity of 50±10%, and a 12-hour light and dark cycle, and the experimental animals were bred in isolation boxes (ThreeShine) and were given experimental animal feed and water ad libitum.
After 12 weeks, the circular alopecia lesion area was photographed and quantified by using the Image J program (Version 1.44p).

[2] = system: lymphocytes in the peripheral blood stream; test: Absolute lymphocyte count suppression in healthy rats; type: in vivo, SD rats
[3] = in vivo
[4] = Phase 1 clinical trial, repeated administration: pharmacokinetics; type: in vivo, healthy adult males
Method: (§1) A randomized, double-blind, placebo-controlled, step-escalation, single- and multiple-dose phase 1 clinical trial was conducted to evaluate the safety, tolerability, and pharmacokinetic/pharmacodynamic characteristics of a compound of Chemical Formula 1 (NXC736) after oral administration to healthy adult males.
(§2) The subjects fasted for at least 10 hours before the first administration. Afterwards, the clinical trial drug was administered orally twice a day for 13 days and once on day 14 in a fasting state at around 9:00 AM and 9:00 PM. The administration was performed twice a day for approximately 14 days, and the subjects were discharged on day 21 from the first administration and observed through outpatient visits until day 36. Blood was collected once before administration and at regular intervals after administration, and hematological tests were performed.

[5] = system: absolute lymphocyte count (ALC); test: Phase 1 clinical trial, single administration: pharmacodynamics by hematological test; type: in vivo, healthy adult males
Method: as §1
(§3) The subjects were administered a single oral dose of the clinical trial drug on an empty stomach at around 9:00 AM on the day of administration after fasting for at least 10 hours. In the single-administration trial, the subjects were administered the drug and hospitalized for 8 days. After discharge, they were observed through outpatient visits until day 21. Blood was collected once before administration and at regular intervals after administration, and hematological tests were performed.

[6] = Phase 1 clinical trial, single administration: pharmacokinetics; type: in vivo, healthy adult males
Method: as §1, §3

[7] = system: lymphocyte-mediated diseases; settings: alopecia areata, inflammatory bowel disease, interstitial fibrosis and tubular atrophy, focal segmental glomerulosclerosis; Korean patents; cited from earlier work
[8] = Phase 1 clinical trial, single ascending dose (SAD): safety and tolerability; parameters: species or system healthy adult males; settings: in vivo
Method: as §1
The clinical trial drug product is a white, round, film-coated tablet (1 mg, 3 mg tablet) or a yellow, round, film-coated tablet (10, 20 mg, 40 mg, 60 mg, 80 mg tablet) containing the active ingredient (main ingredient) NXC736 and excipients such as diluents, binders, disintegrants, fluidizing agents and glidants. The NXC736 clinical trial drug product was manufactured as an 84 mg film-coated tablet containing 1 mg or 3 mg of the main ingredient, or a 334 mg film-coated tablet containing 10 mg, 20 mg, 40 mg, 60 mg or 80 mg of the main ingredient, and it can be stored at room temperature (1 to 30°C) in an airtight container.
In this clinical trial, a total of 42 subjects were randomly assigned to a single-administration, and a total of 39 subjects completed the study according to the clinical trial protocol. A total of 33 subjects were assigned to a repeated-administration trial, and a total of 32 subjects completed the study according to the clinical trial protocol.
as §3

[9] = system: Sphingosine-1 Phosphate (S1P) receptor; settings: background art statement; cited from earlier work
[10] = system: absolute lymphocyte count (ALC); test: Phase 1 clinical trial, repeated administration: pharmacodynamics by hematological test; type: in vivo, healthy adult males
Method: as §1, §2

[11] = system: T lymphocytes; settings: through the suppression of T lymphocytes; cited from earlier work

## CCCCCCCCCCn1cc(CCC(N)(CO)CO)nn1 [NXC736]
[1]
  circular alopecia lesion area compared to control group: effectively reduced
  dose dependence of therapeutic effect on alopecia lesion area: concentration-dependent therapeutic effect was observed
[2]; 5 mg/kg oral twice a day, 4 hours after the first administration
  lymphocytes suppressed by: up to 78%
[2]; 5 mg/kg oral twice a day, 4 hours after the second administration (16 hours after the first)
  lymphocytes suppressed by: approximately 90%
[2]; 5 mg/kg oral twice a day, 24 hours
  lymphocytes recovered to: approximately 50%
[2]; 10 mg/kg oral twice a day, 4 hours after the first administration
  lymphocytes suppressed by: up to 83%
[2]; 10 mg/kg oral twice a day, 4 hours after the second administration (16 hours after the first)
  lymphocytes suppressed by: up to 94%
[2]; 10 mg/kg oral twice a day, up to 24 hours
  lymphocyte suppression effect maintained: about 80%
[2]; 10 mg/kg oral twice a day, up to 36 hours
  lymphocyte suppression effect maintained: about 70%
[2]; 20 mg/kg oral once a day, 12 hours
  lymphocytes suppressed by: up to 92%
[2]; 20 mg/kg oral once a day, 24 hours
  lymphocytes recovered to: 60%
[2]; 20 mg/kg oral once a day, 48 hours
  lymphocytes recovered to: 100%
[2]; 5 or 10 mg/kg BID vs 20 mg/kg QD
  lymphocyte suppression effect, twice a day vs once a day: superior when administered twice a day even at a lower dose compared to when administered once a day
[3]
  serious adverse reactions: No serious adverse reactions were observed
[4]; repeated administration
  accumulation at steady state compared to the first administration: approximately twice
[4]; repeated administrations
  dose proportionality of Cmax,ss and AUCtau,ss: confirmed
[5]; single administration 1 mg
  change in ALC: 16%
[5]; single administration 3 mg
  change in ALC: 27%
[5]; single administration 10 mg
  change in ALC: 27%
[5]; single administration 20 mg
  change in ALC: 25%
[5]; single administration 40 mg
  absolute lymphocyte count after administration compared to before administration: about 68%
[5]; single administration 80 mg
  absolute lymphocyte count after administration compared to before administration: about 54%
[6]
  elimination in urine: hardly eliminated in urine
[6]; human, in vivo, po, read-out: average elimination half-life (converted)
  half-life: ~10 h
[6]; human, plasma, po, read-out: time to reach peak plasma concentrations
  Tmax: ~1 h
[7]
  treatment of lymphocyte-mediated diseases in animal experiments: effectively treat
[8]
  adverse reactions (ADR) assessed as having a causal relationship with the investigational drug: 12
  adverse reactions (number of events): 23
  decrease in heart rate after administration: observed in most subjects administered NXC736
  difference in frequency of adverse reactions between dose groups: no significant difference in the frequency of adverse reactions between the dose groups
  serious adverse reactions: No serious adverse reactions were observed
  severity and outcome of adverse reactions: Most adverse reactions were mild and all recovered during the trial period
  subjects with adverse reactions: 9
[9]
  binding selectivity among S1P receptor subtypes: selectively binds to S1P1 and S1P4
[10]; 20 mg twice daily, 14-day repeated administration
  change in ALC: ≤ 30%
[10]; 40 mg to 80 mg, repeated administrations twice a day
  ALC reduction effect: ≥ 50%
[10]; 60 mg twice-daily administration group or higher, 14 days
  absolute lymphocyte count decrease: up to 70%
[10]; repeated administrations 40 mg
  absolute lymphocyte count after administration compared to before administration: about 43%
[10]; repeated administrations 60 mg
  absolute lymphocyte count after administration compared to before administration: about 32%
[10]; repeated administrations 80 mg
  absolute lymphocyte count after administration compared to before administration: about 36%

## C=CC(=O)N1C[C@H](Nc2ncnc3[nH]ccc23)CC[C@@H]1C [Ritlecitinib]
[11]
  therapeutic effect on alopecia areata: show a therapeutic effect on alopecia areata
